Source: patent US10947185B2, “Crystal form of dezocine and preparation method therefor” (priority 2017, dated 2021)
In brackets after ≈: the same amount, converted by molar mass. Read-outs that look alike come from different tables or passages of the source.

Columns and labels:
[1] = Solubility test in 0.1 mol/L hydrochloric acid solution; format: physicochemical; conditions: for solubility: 50 mg sample
[2] = Stability test: changes of related substances over 6 months; format: physicochemical
Text: iii. Compared with the sample of crystal Form I of dezocine, the new crystal form of dezocine prepared according to the present application has better stability, and changes of the related substances within the new crystal form of dezocine over 6 months are as follows: […]

[3] = relative to Dolantin; cited from earlier work

| Compound | Solubility increase compared with crystal Form I of dezocine [1] | solubility ([1]; simulated gastric fluid, thermodynamic from solid, read-out: Solubility) [mg/mL] | Related substances ([2]; 0 days) [%] | Related substances ([2]; 1 month) [%] | Related substances ([2]; 3 months) [%] | Related substances ([2]; 6 months) [%] | Analgesic intensity, onset time, duration of action and maximum analgesic effect, stronger than those of Dolantin [3] | solubility [1] [mg/mL] |
| --- | --- | --- | --- | --- | --- | --- | --- | --- |
| C[C@@]12CCCCC[C@@H](Cc3ccc(O)cc31)[C@@H]2N (single isomer, unassigned) [Crystal Form II of dezocine, (−)-[5R-(5α,11α,13S*)]-13-amino-5,6,7,8,9,10,11,12-octahydro-5-methyl-5,11-methanobenzocy clodecen-3-ol] | about 32% | 33 (≈ 134 mM) |  |  |  |  |  |  |
| C[C@@]12CCCCC[C@@H](Cc3ccc(O)cc31)[C@@H]2N (relative stereo) [Example 1, (−)-[5R-(5α,11α,13S*)]-13-amino-5,6,7,8,9,10,11,12-octahydro-5-methyl-5,11-methanobenzocy clodecen-3-ol] |  |  | 0.06 | 0.07 | 0.10 | 0.13 |  |  |
| C[C@@]12CCCCC[C@@H](Cc3ccc(O)cc31)[C@@H]2N (relative stereo) [Example 4, (−)-[5R-(5α,11α,13S*)]-13-amino-5,6,7,8,9,10,11,12-octahydro-5-methyl-5,11-methanobenzocy clodecen-3-ol] |  |  | 0.06 | 0.08 | 0.10 | 0.12 |  |  |
| C[C@@]12CCCCC[C@@H](Cc3ccc(O)cc31)[C@@H]2N (relative stereo) [Dezocine, (−)-[5R-(5α,11α,13S*)]-13-amino-5,6,7,8,9,10,11,12-octahydro-5-methyl-5,11-methanobenzocy clodecen-3-ol] |  |  |  |  |  |  | 5-9 times |  |
| C[C@@]12CCCCC[C@@H](Cc3ccc(O)cc31)[C@@H]2N (single isomer, unassigned) [Crystal Form I of dezocine, (−)-[5R-(5α,11α,13S*)]-13-amino-5,6,7,8,9,10,11,12-octahydro-5-methyl-5,11-methanobenzocy clodecen-3-ol, reference compound] |  |  | 0.08 | 0.15 | 0.21 | 0.28 |  | 25 (≈ 102 mM) |
| C[C@@]12CCCCC[C@@H](Cc3ccc(O)cc31)[C@@H]2N (relative stereo) [Example 2, (−)-[5R-(5α,11α,13S*)]-13-amino-5,6,7,8,9,10,11,12-octahydro-5-methyl-5,11-methanobenzocy clodecen-3-ol] |  |  | 0.07 | 0.09 | 0.10 | 0.12 |  |  |
| C[C@@]12CCCCC[C@@H](Cc3ccc(O)cc31)[C@@H]2N (relative stereo) [Example 3, (−)-[5R-(5α,11α,13S*)]-13-amino-5,6,7,8,9,10,11,12-octahydro-5-methyl-5,11-methanobenzocy clodecen-3-ol] |  |  | 0.04 | 0.05 | 0.8 | 0.10 |  |  |
| C[C@@]12CCCCC[C@@H](Cc3ccc(O)cc31)[C@@H]2N (relative stereo) [Example 5, (−)-[5R-(5α,11α,13S*)]-13-amino-5,6,7,8,9,10,11,12-octahydro-5-methyl-5,11-methanobenzocy clodecen-3-ol] |  |  | 0.04 | 0.06 | 0.07 | 0.09 |  |  |
